Test systems include HCT-116 colon; HOP-62 NSCLC; SF-539 CNS; A498 renal; NCI-H460 lung; UACC-257 melanoma; U251 CNS; TK-10 renal; RXF 393 renal.
Holding throughout (assay): inhibition of tumour cell growth, NCI panel, 48 h

The structures appear in SMILES notation.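 Following 48 hours of exposure in 96-well plates, responses at five concentrations were used to interpolate endpoints linearly. Here, GI50 denotes the concentration required for 50% inhibition of growth. The concentration for full growth arrest is given as TGI.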

In the case of `Cc1ccc2c(c1)C1C(CO2)C(c2ccccc2)=NN1c1ccccc1` (stereo not drawn), the TGI in the test with HCT-116 colon, with HOP-62 NSCLC, in the test on SF-539 CNS, in the test with A498 renal, in the test on NCI-H460 lung and with UACC-257 melanoma was greater than 100 µM each time. The TGI in the test with U251 CNS, in the test with TK-10 renal and in the test with RXF 393 renal was greater than 100 µM each time.

For `COC(=O)N/N=C(\C(=O)Nc1cccc([N+](=O)[O-])c1)c1nc2ccc([N+](=O)[O-])cc2[nH]c1=O`, the TGI in the test on HCT-116 colon was greater than 100 µM; in the test on HOP-62 NSCLC, 66.5 µM; with SF-539 CNS, greater than 100 µM; with NCI-H460 lung it was greater than 100 µM; with UACC-257 melanoma it was greater than 100 µM; in the test with TK-10 renal, greater than 100 µM. The compound further gave a TGI with RXF 393 renal greater than 100 µM.

In the case of `COc1ccc(-c2nc(Nc3ccc(-c4nc5ccccc5[nH]4)cc3)nc(N3CCOCC3)n2)cc1`, the GI50 with HCT-116 colon is 1.9 µM; with HOP-62 NSCLC, 2.11 µM; with SF-539 CNS, 1.63 µM; with A498 renal it was 1.52 µM; with NCI-H460 lung it was 2.48 µM; with U251 CNS, 2.04 µM. The GI50 in the test on TK-10 renal was 2.91 µM; in the test with RXF 393 renal it was 0.459 µM. Besides, the TGI in the test with HCT-116 colon came to 3.54 µM; in the test on HOP-62 NSCLC, 5.3 µM; in the test with SF-539 CNS, 3.72 µM; in the test on A498 renal it was 3.57 µM; in the test with NCI-H460 lung it was 6.51 µM; in the test with U251 CNS, 13.6 µM. Also, the TGI in the test with TK-10 renal is 8.54 µM; with RXF 393 renal it was 2.51 µM.

For `COC(=O)NN1C(C)=C(C(=O)OC)C2(C#N)C(C(=O)OC)=C(C)N(NC(=O)OC)C12N` (stereo not drawn), the TGI in the test with HCT-116 colon, with HOP-62 NSCLC, in the test on SF-539 CNS, with A498 renal, with NCI-H460 lung and with UACC-257 melanoma was greater than 100 µM throughout. Besides, the TGI in the test with U251 CNS and with TK-10 renal was greater than 100 µM each time.

With `CSc1ccc(OCC2OC2O)cc1` (stereo not drawn), the TGI with HCT-116 colon was 36.9 µM; in the test on HOP-62 NSCLC, greater than 100 µM; in the test with SF-539 CNS, greater than 100 µM; in the test with A498 renal, greater than 100 µM; in the test with NCI-H460 lung it was greater than 100 µM; in the test on UACC-257 melanoma, greater than 100 µM. In addition, the TGI in the test with U251 CNS, in the test with TK-10 renal and with RXF 393 renal was greater than 100 µM in each case.

Turning to `CC1=NN2C(c3ccc(C)cc3)=CSC2=NC(C)(C)C1`, the TGI in the test with HCT-116 colon, with HOP-62 NSCLC, in the test with SF-539 CNS, in the test on A498 renal, with NCI-H460 lung and in the test with UACC-257 melanoma was greater than 100 µM in each case. In addition, the TGI in the test with U251 CNS, in the test with TK-10 renal and with RXF 393 renal was greater than 100 µM throughout.

For the compound `C/C=C(/CCC1NCCC2c3ccccc3NC12)[Si](C)(C)C` (stereo not drawn), the TGI in the test with HCT-116 colon was 11.9 µM; in the test with HOP-62 NSCLC it was 28.6 µM; in the test with SF-539 CNS, 29.5 µM; in the test on NCI-H460 lung it was 12.4 µM; in the test with UACC-257 melanoma, 14.2 µM; in the test on U251 CNS, 25.4 µM. For the same compound, the TGI was 28.8 µM in the test with TK-10 renal and 19.2 µM in the test with RXF 393 renal.

`NC1=NN(c2ccccc2)C(=O)C1/C(=N\NC(=O)c1cc2ccccc2cc1O)C(=O)Nc1cccc(C(F)(F)F)c1` (stereo not drawn): the TGI with HCT-116 colon is 94.9 µM; with HOP-62 NSCLC it was greater than 100 µM; with NCI-H460 lung, greater than 100 µM; in the test with UACC-257 melanoma it was 71.1 µM; in the test with U251 CNS, greater than 100 µM; with TK-10 renal it was greater than 100 µM. In the test with RXF 393 renal, the TGI was greater than 100 µM.

For `COC(=O)C[CH2][Ge]([CH3])([CH3])[S]c1ccccc1`, the GI50 in the test on HCT-116 colon is 33.4 µM; in the test on HOP-62 NSCLC it was 22.6 µM; in the test with SF-539 CNS it was 21.1 µM; in the test with NCI-H460 lung, 16.9 µM; in the test with UACC-257 melanoma, 51.2 µM; in the test on U251 CNS it was 17.7 µM. For the same compound, the values for the GI50 in the test on TK-10 renal and in the test on RXF 393 renal were 55.7 µM and 4.08 µM, respectively. In addition, the TGI in the test with HCT-116 colon was greater than 100 µM; in the test on HOP-62 NSCLC it was 65.4 µM; with SF-539 CNS, 39.8 µM; in the test with NCI-H460 lung, 30.6 µM; in the test on UACC-257 melanoma it was greater than 100 µM; in the test on U251 CNS, 44.1 µM. Further, the TGI in the test on TK-10 renal was greater than 100 µM; in the test with RXF 393 renal, 23.3 µM.

For the compound `O=C(CC1(O)C(=O)Nc2ccccc21)c1ccc(F)cc1` (stereo not drawn), the TGI in the test with HCT-116 colon, with SF-539 CNS, in the test with A498 renal, in the test on NCI-H460 lung, in the test with UACC-257 melanoma and with TK-10 renal was greater than 100 µM throughout. The compound further gave a TGI with RXF 393 renal greater than 100 µM.

Consider `Cn1c(=O)c2ccc(-c3ccc(Br)cc3)nc2n(C)c1=O`, for which the TGI in the test on HCT-116 colon, with HOP-62 NSCLC, with SF-539 CNS, in the test with A498 renal, with NCI-H460 lung and with UACC-257 melanoma was greater than 100 µM in each case. The TGI with U251 CNS and in the test with TK-10 renal was greater than 100 µM in each case.

On to `Cc1cc(=O)n2c3c(c4c(cc13)c(CO)cc(=O)n4C)OC2`, for which the TGI in the test with HCT-116 colon is 15.8 µM; in the test on HOP-62 NSCLC, 40.2 µM; in the test on SF-539 CNS it was 51.5 µM; with A498 renal, 72.5 µM; in the test with NCI-H460 lung, greater than 100 µM; with UACC-257 melanoma, greater than 100 µM. Moreover, the TGI was greater than 100 µM in the test with U251 CNS and 62.4 µM with TK-10 renal.

Regarding `CC1(c2cccc(N)c2)C2C(=O)NC(=O)C1C(=O)NC2=O` (stereo not drawn), the TGI with HOP-62 NSCLC was greater than 100 µM; in the test on SF-539 CNS it was 81.7 µM; in the test on A498 renal, 99.6 µM; with NCI-H460 lung, greater than 100 µM; in the test with UACC-257 melanoma, greater than 100 µM; in the test on TK-10 renal, greater than 100 µM. This compound gave a TGI in the test on RXF 393 renal of 71.2 µM.

As to `CO[C@]12C=C/C(=C(/C(=O)OCc3cccnc3)C(=O)CCCCCCCC[C@@]3(OC)C=C/C(=C(/C(=O)OCc4cccnc4)C(=O)CCCCCCCC1)O3)O2`, the GI50 was 0.275 µM with HCT-116 colon; 1.64 µM with SF-539 CNS; 2.04 µM in the test on A498 renal; 1.27 µM in the test on NCI-H460 lung; 2.01 µM with UACC-257 melanoma; 1.66 µM in the test with U251 CNS. For the same compound, the GI50 is 2.93 µM in the test with TK-10 renal and 0.915 µM with RXF 393 renal. In addition, the TGI was 1.22 µM in the test with HCT-116 colon; 7.91 µM with SF-539 CNS; 6.57 µM in the test on A498 renal; 3.16 µM with NCI-H460 lung; 20.1 µM with UACC-257 melanoma; 8.58 µM with U251 CNS. For the same compound, the TGI amounted to 18.9 µM in the test with TK-10 renal and 1.7 µM in the test on RXF 393 renal.

As for `C/C(=N\NS(=O)(=O)c1ccc(C)cc1)c1cc2ccccc2n1C`, the TGI in the test on HCT-116 colon, in the test with HOP-62 NSCLC, in the test on SF-539 CNS, with A498 renal, in the test with NCI-H460 lung and in the test with UACC-257 melanoma was greater than 100 µM throughout. Besides, the TGI with U251 CNS was greater than 100 µM.

`CC(=O)[CH-]C(=O)c1ccccc1.CC(=O)[CH-]C(=O)c1ccccc1.CC1(C)OCC(C2OC3OC(C)(C)OC3C2[O-])O1.CC1(C)OCC(C2OC3OC(C)(C)OC3C2[O-])O1.[Ti+4]` (stereo not drawn): the GI50 is 14.4 µM in the test with HCT-116 colon; 17.9 µM in the test on HOP-62 NSCLC; 13.6 µM with SF-539 CNS; 15.7 µM in the test with A498 renal; 11.3 µM in the test with NCI-H460 lung; 34.1 µM with TK-10 renal. Further, the GI50 with RXF 393 renal is 12.5 µM. For the same compound, the TGI was 32.1 µM with HCT-116 colon; 36.2 µM with HOP-62 NSCLC; 28 µM in the test with SF-539 CNS; 30.2 µM with A498 renal; 28.4 µM in the test with NCI-H460 lung; greater than 100 µM in the test on TK-10 renal. Besides, the TGI with RXF 393 renal was determined as 25.3 µM.

For the compound `N.N.O=P([O-])([O-])CN(CCN(CP(=O)([O-])[O-])CP(=O)([O-])[O-])CP(=O)([O-])[O-].[Pt+2]`, the GI50 in the test on HCT-116 colon, with HOP-62 NSCLC, in the test on SF-539 CNS, in the test with NCI-H460 lung, in the test on UACC-257 melanoma and in the test on U251 CNS was greater than 100 µM in each case. Moreover, the GI50 in the test on TK-10 renal and with RXF 393 renal was greater than 100 µM throughout. The TGI in the test with HCT-116 colon, in the test with HOP-62 NSCLC, in the test on SF-539 CNS, with NCI-H460 lung, in the test with UACC-257 melanoma and with U251 CNS was greater than 100 µM each time. Further, the TGI in the test with TK-10 renal and in the test with RXF 393 renal was greater than 100 µM throughout.

Take `CCOC(=O)C1=C(C)N(Cc2ccccc2)C(=O)C1CC#N` (stereo not drawn): the TGI with HCT-116 colon, in the test with HOP-62 NSCLC, in the test with SF-539 CNS, with A498 renal, in the test with NCI-H460 lung and in the test on UACC-257 melanoma was greater than 100 µM throughout. In addition, the TGI in the test on U251 CNS and in the test on RXF 393 renal was greater than 100 µM throughout.

Regarding `Cc1ccc(NC(=O)CC/C(CC(=O)C(C)(C)C)=N/NC(=O)C[N+](C)(C)C)cc1C`, the TGI with HCT-116 colon was greater than 100 µM; with HOP-62 NSCLC, greater than 100 µM; with SF-539 CNS it was 44.8 µM; in the test on NCI-H460 lung, greater than 100 µM; in the test with UACC-257 melanoma it was greater than 100 µM; in the test with U251 CNS, greater than 100 µM. Besides, the TGI with TK-10 renal and in the test on RXF 393 renal was greater than 100 µM throughout.

These data come from PubChem BioAssay (NCI).
